Patent US20070185013A1, “Use of chk1 inhibitors to control cell proliferation” (ICOS CORPORATION, priority 2003, published 2007)

What was measured:
tumor cells = assay: Cell-based proliferation (sensitization) assay (Example 2); conditions: ratio of GI90 of the chemotherapy agent in absence to that in presence of Chk1 inhibitor
Experimental: Chk1 inhibitors were tested in a cell-based proliferation assay for the ability to sensitize tumor cells to ionizing radiation or chemotherapy agents. Chk1 inhibitors were tested in combination with 5-FU, gemicitabine, ionizing radiation, camptothecin, etoposide, hydroxyurea, cisplatin, fludarabine, Ara-C and aphidicolin. For each experiment, a serial dilution of each compound in combination with a ten-point dilution of each chemotherapy agent was included, in order to determine the concentration of chemotherapeutic required to inhibit the growth of 90% (GI90) of the cells in the presence and absence of the Chk1 inhibitor. This ratio of GI90 in the absence of Chk1 inhibitor to that in the presence of Chk1 inhibitor is called the “fold sensitization.” Fold sensitization was plotted as a function of Chk1 inhibitor concentration and the amount of drug required to yield two-fold sensitization was calculated. […] Another parameter analyzed was the fold sensitization achieved at the LD50 (the dose of compound alone that inhibits growth of 50% of cells) for the compound. These two values allow direct ranking of both the potency and toxicity of Chk1 inhibitors with respect to one another.

Chk1 = Chk1 serine 296 phosphorylation, Western blot in HT29 cells; type: cell-based, human; conditions: tumor cells treated with gemcitabine; Chk1 inhibitors for 15 minutes
Experimental: Phosphorylation at this site is not inhibited by Wortinannin, which inhibits Atm and Atr. Therefore the phosphorylation of serine 296 is distinct from phosphorylation at serines 317 and 345 described in Example 12. […] Therefore, this approach may be used to monitor Chk1 activity in tumors in response to Chk1 activators. Further, this approach may be used to measure inhibition of Chk1 activation by Chk1 inhibitors.
Thus, HT 29 cells were treated with 20 μM gemcitabine for two hours. The gemcitabine was washed out of the cell growth media and cells were incubated for 22 additional hours. Protein lysates were prepared and separated by an SDS-polyacrylamide gel electrophoresis. Proteins were transferred to polyvinylidene fluoride (PVDF) membranes and probed with antisera (Cell Signalling) specific for phosphorlyated serine 296 (Cell Signalling). […] Further, HT29 cells treated with selective Chk1 inhibitors for 15 minutes show no serine 296 phosphorylation.

HT29 cells = assay: Cell cycle phase distribution by propidium iodide DNA content; type: cell-based, human; conditions: low-level camptothecin, 20 nM for 24 hours
Excerpt: The proportion of cells in different phases of the cell cycle can be measured by those skilled in the art using any one of a variety of techniques. For example, a fluorescent DNA-binding dye, propidium iodide, can be used to distinguish cells in different cell cycle phases. Since cells in G2 have twice as much DNA as cells in G1, and S phase cells show an intermediate amount of DNA, the technique allows one to identify cells in different phases based on the DNA content of a cell. This method can be carried out on cell lines and tumor specimens (Cerra et al., Methods in Cell Biology, 33:1-12, 1990) Furthermore, cells in S phase can be labeled with the nucleotide analog, bromo-deoxyuridine (BrdU) and then fixed and stained with an fluorescent-tagged antibody to BrdU. Both of these methods employ fluorescence cytometry or fluorescence activity cell sorting (FACS) to quantify the proportion of cells staining with these fluorescent markers. […]
Two cell samples, each containing the same human carcinoma cell line (HT29) were prepared. Using propidium iodide (PI) to monitor DNA content, the percentage of cells the G1, S, and G2/M phases of the cell cycle were measured before and after contact with low levels of camptothecin. […]

## O=c1[nH]cc(F)c(=O)[nH]1 [5-FU, 5-fluorouracil]
Tumor cells
  Fold Sensitization to Agent by Chk1 Inhibitor: 12 fold

## Nc1ccn([C@@H]2O[C@H](CO)[C@@H](O)[C@@H]2O)c(=O)n1 [Ara-C, cytosine arabinoside]
Tumor cells
  Fold Sensitization to Agent by Chk1 Inhibitor: 9 fold

## N.N.[Cl][Pt][Cl] [Cisplatin, cisplatin]
Tumor cells
  Fold Sensitization to Agent by Chk1 Inhibitor: 3 fold

## COc1cc([C@@H]2c3cc4c(cc3[C@@H](O[C@@H]3O[C@@H]5CO[C@@H](C)O[C@H]5[C@H](O)[C@H]3O)[C@H]3COC(=O)[C@H]23)OCO4)cc(OC)c1O [Etoposide, etoposide]
Tumor cells
  Fold Sensitization to Agent by Chk1 Inhibitor: 3 fold

## COC[C@H]1OC(=O)c2coc3c2[C@@]1(C)C1=C(C3=O)[C@@H]2CCC(=O)[C@@]2(C)C[C@H]1OC(C)=O [Wortinannin]
Chk1
  inhibition of Chk1 serine 296 phosphorylation: not inhibited

## CC[C@@]1(O)C(=O)OCc2c1cc1n(c2=O)Cc2cc3ccccc3nc2-1 [camptothecin]
HT29 cells; PI staining
  G1 (%): 6.75%
HT29 cells; combined total in G2 + M phase
  G2/M* (%): 7%
Tumor cells
  Fold Sensitization to Agent by Chk1 Inhibitor: 5 fold
